Measured values as given in patent publication US10655126B2, “Methods and compositions to treat drug-induced diseases and conditions” (University of Vermont and State Agricultural College, priority 2015, dated 2020).

Legend:
[1] = cited from earlier work
[2] = test system: MCJ; experiment: MCJ knockdown in human MCF7 cells, Western blot; assay type: cell-based; conditions: MCF7 cells transfected with h-siMCJ 5 nM, harvested after 30 h; FIG. 10
Experimental: (§1) A human siMCJ has been tested in a human MCF7 cell line in vitro. […] Transfection methods included transecting human MCF7 cells transfected with h-siMCJ (5 nM) and after 30 h cells were harvested and MCJ expression was examined by Western blot analysis using an anti-human MCJ antibody. CoxIV (mitochondrial protein) and GAPDH were also examined as controls.

[3] = test system: CoxIV; experiment: CoxIV level in human MCF7 cells, Western blot (control protein); assay type: cell-based; conditions: MCF7 cells transfected with h-siMCJ 5 nM, harvested after 30 h; FIG. 10
Experimental: as §1

[4] = test system: MCJ; experiment: MCJ expression in liver in vivo by Western blot; parameters: species or system mouse
Experimental: Analysis for MCJ expression in liver by Western blot analysis was performed as previously described (REF) using a specific anti-MCJ antibody. Expression of GAPDH was used as a control. Band intensities were quantified using the ImageJ software and normalized to the control (GAPDH).
(§2) siMCJ oligos (double strand RNA oligos, see for example, SEQ ID NO: 22) containing the designed sequence were synthesized for in vivo studies (Ambion invivo siRNA). As a delivery system Invivofectamine 3.0 (Life Technology) was used because it is claimed to obtain high efficiency of in vivo delivery of siRNA into hepatocytes. Following the recommendation of the manufacturer, 1.7 mg/Kg was used in combination with invivofectamine 3.0. Preparation of siRNA with the Invivofectamine was performed as recommended by the manufacturer. Mice were administered with a single i.v. dose of siMCJ/invivofectamine in 150 μl.

[5] = test system: wild-type mice; experiment: Acetaminophen (APAP) mouse model of drug-induced liver injury: liver histology and serum ALT; assay type: in vivo
Experimental: Alanine aminotransferase (ALT) aspartate aminotransferase (AST) and bilirubin were determined in serum samples using the Selectra Junior SpinLab 100 analyzer (Vital Scientific) and the SpinReact reagents according to manufacturer's protocols.
Paraffin-embedded liver samples were sectioned, dewaxed, and hydrated. Immunohistochemistry (IHC) was performed using an anti-MCJ antibody and nuclei were counter-stained with hematoxylin. Quantification of staining area of each sample was analyzed using the Frida software and represented as the % of the stained area relative to the total area (power field). Ten fields per sample were pictured and analyzed. For liver histology, liver sections from paraffin-embedded tissue were stained with hematoxylin and eoxin (H&E staining). Frida software was used for quantification.
as §2

[6] = test system: wild-type hepatocytes; experiment: Protection of wild-type hepatocytes from acetaminophen toxic injury by siRNA for MCJ; assay type: cell-based

## CC(=O)N[C@@H](CS)C(=O)O [NAC, N-acetylcysteine]
[1]; more than 8 h after uptake of acetaminophen
  hepatoprotective effect when given after 8 h: minimal to known
[1]; patients with acute hepatic failure due to overdose of acetaminophen
  time after uptake of acetaminophen within which administration has a hepatoprotective effect: ≤ 8 h

## h-siMCJ: human siRNA sequence gaagatttcaactectagat (as printed), double stranded RNA oligo (GAAGATTTCAACTCCTAGCTT; listed as DNA, chemistry not given here; listed as Homo sapiens)
[2]
  MCJ protein expression: sufficient to knockdown MCJ protein expression
[3]
  levels of CoxIV (another mitochondrial protein): not affecting the levels of CoxIV

## siMCJ: double strand RNA oligos (see for example SEQ ID NO: 22, mouse siRNA sequence gcgagaggctagtcttatt), given i.v. with Invivofectamine 3.0 (GCGAGAGGCTAGTCTTATT; Invivofectamine 3.0 formulation, further chemistry not given here; listed as Mus musculus)
[4]; 24 h after single i.v. dose of siMCJ 1.7 mg/Kg with invivofectamine, wild-type mice, FIG. 7
  levels of endogenous MCJ in the liver: almost undetectable
[4]; after 9 days of administration, single i.v. dose of siMCJ, FIG. 7
  restoration of MCJ levels in liver: not a full restoration of MCJ levels
[4]; siMCJ i.v. 20 h before acetaminophen 360 mg/Kg i.p., harvested 24 h after acetaminophen, relative to APAP-mice without siMCJ, FIG. 8A
  levels of MCJ in the liver of APAP-mice: markedly reduced
[4]; siMCJ i.v. 24 h after acetaminophen 360 mg/Kg i.p., harvested 48 h after acetaminophen, FIG. 9A
  levels of MCJ in the liver: almost undetectable
[4]; single i.v. dose of siMCJ 1.7 mg/Kg with invivofectamine, FIG. 7
  time for which levels of MCJ in liver remained very low: at least 7 days
[5]; siMCJ i.v. 20 h before acetaminophen 360 mg/Kg i.p., harvested 24 h after acetaminophen, FIG. 8B
  areas of tissue damage in liver sections (H&E histology): almost not detected
[5]; siMCJ i.v. 20 h before acetaminophen, n=5, p<0.05, FIG. 8C
  quantification of the damage area in the livers: protective effect
[5]; siMCJ i.v. 24 h after acetaminophen 360 mg/Kg i.p., harvested 48 h after acetaminophen, p<0.01 vs control mice, FIG. 9B
  levels of ALT in serum: drastically lower
[6]
  protection from toxic injury caused by acetaminophen: protected wild-type hepatocytes from the development of toxic injury
